biological target: T1, P2X7 receptor (Homo sapiens, UniProt Q99572); assay: IL-1β release assay in differentiated THP-1 cells stimulated with BzATP (Example 9); format: cell-based; conditions: 0.1 μM concentration, read-out: IL-1β % Inhib. @ 0.3 or 0.1 μM
T1 construct: endogenous in cells; host or cells: THP-1 cells differentiated with LPS and IFN-γ
T1 sequence (Q99572 1-595): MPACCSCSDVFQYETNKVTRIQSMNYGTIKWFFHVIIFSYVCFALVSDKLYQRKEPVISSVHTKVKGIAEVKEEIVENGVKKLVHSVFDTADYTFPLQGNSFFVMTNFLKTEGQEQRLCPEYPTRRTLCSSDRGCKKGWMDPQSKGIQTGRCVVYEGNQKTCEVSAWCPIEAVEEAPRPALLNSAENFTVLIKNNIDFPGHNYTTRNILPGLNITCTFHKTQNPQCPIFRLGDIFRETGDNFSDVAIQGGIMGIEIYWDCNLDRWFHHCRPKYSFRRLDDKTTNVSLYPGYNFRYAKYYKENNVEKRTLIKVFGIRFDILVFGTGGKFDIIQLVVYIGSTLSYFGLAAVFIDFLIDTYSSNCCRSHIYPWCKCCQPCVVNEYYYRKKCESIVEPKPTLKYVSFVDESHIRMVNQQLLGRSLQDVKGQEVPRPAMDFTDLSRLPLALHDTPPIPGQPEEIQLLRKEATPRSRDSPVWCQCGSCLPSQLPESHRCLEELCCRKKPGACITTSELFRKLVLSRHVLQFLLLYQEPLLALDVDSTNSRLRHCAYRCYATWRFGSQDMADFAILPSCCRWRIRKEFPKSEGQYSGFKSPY
Method: The cells are then pretreated for 30 minutes with the compound of interest at the appropriate concentration in RPMI media containing 100 IU/mL penicillin, 100 ug/mL streptomycin. […] 30 uL of cell supernatant is then collected and IL-1β levels determined via ELISA (R&D systems Cat. # HSLB50) according to manufacturer's recommendations using the Tecan Safire plate reader. Background adjusted IL-1β levels of drug treated and non-treated cells are used to calculate the percent inhibition.
The compounds set forth in Table 1 were tested for activity in a cellular model as described herein. […] Measurements were made and IC50 values, presented in Table 2, below, were determined by fitting the data to a four parameter logistic equation using GraphPad Prism software (GraphPad Software, Inc). The equation may be expressed by the following formula:
Y=Bottom+(Top-Bottom)/(1+10̂((Log EC50−X)*HillSlope))
Where X is the logarithm of concentration, Y is the response and Y starts at Bottom and goes to Top with a sigmoid shape.

SMILES | inhibition at 0.1 µM
CCOC(=O)N1CCC(n2ccc3c(NC(=O)c4cccc(OCC)c4)cccc3c2=O)CC1 [ID 757] | 0 to 25%
CCOC(=O)N1CCC(n2ccc3c(NC(=O)CCc4ccccc4Cl)cccc3c2=O)CC1 [ID 758] | 0 to 25%
CCOC(=O)N1CCC(n2ccc3c(NC(=O)CCc4ccc5c(c4)OCO5)cccc3c2=O)CC1 [ID 759] | 0 to 25%
CCOC(=O)N1CCC(n2ccc3c(NC(=O)c4ccc(Cl)c(C)c4)cccc3c2=O)CC1 [ID 760] | 0 to 25%
CCOC(=O)N1CCC(n2ccc3c(NC(=O)c4ccccc4Cl)cccc3c2=O)CC1 [ID 761] | 0 to 25%
CCOC(=O)N1CCC(n2ccc3c(NC(=O)c4ccc(Cl)cc4Cl)cccc3c2=O)CC1 [ID 762] | 0 to 25%
CCOC(=O)N1CCC(n2ccc3c(NC(=O)c4cc(Cl)ccc4Cl)cccc3c2=O)CC1 [ID 763] | 0 to 25%
CCOC(=O)N1CCC(n2ccc3c(NC(=O)c4ccccc4C)cccc3c2=O)CC1 [ID 764] | 0 to 25%
CCOC(=O)N1CCC(n2ccc3c(NC(=O)c4cccc(C)c4C)cccc3c2=O)CC1 [ID 765] | 0 to 25%
CCOC(=O)N1CCC(n2ccc3c(NC(=O)c4ccc(C)cc4C)cccc3c2=O)CC1 [ID 766] | 0 to 25%
CCOC(=O)N1CCC(n2ccc3c(NC(=O)c4cc(C)ccc4C)cccc3c2=O)CC1 [ID 767] | 0 to 25%
CCOC(=O)N1CCC(n2ccc3c(NC(=O)c4cc(Cl)cc(Cl)c4)cccc3c2=O)CC1 [ID 768] | 0 to 25%
CCOC(=O)N1CCC(n2ccc3c(NC(=O)c4cc(OC)cc(OC)c4)cccc3c2=O)CC1 [ID 769] | 26 to 50%
CCOC(=O)N1CCC(n2ccc3c(NC(=O)c4cccc(C)c4)cccc3c2=O)CC1 [ID 770] | 0 to 25%
CCOC(=O)N1CCC(n2ccc3c(NC(=O)c4ccc(OCC)cc4)cccc3c2=O)CC1 [ID 771] | 0 to 25%
CCOC(=O)N1CCC(n2ccc3c(NC(=O)c4ccc(-c5ccccc5)cc4)cccc3c2=O)CC1 [ID 772] | 0 to 25%
CCOC(=O)N1CCC(n2ccc3c(NC(=O)c4ccc(C(C)(C)C)cc4)cccc3c2=O)CC1 [ID 773] | 26 to 50%
CCOC(=O)N1CCC(n2ccc3c(NC(=O)C(C)c4ccccc4)cccc3c2=O)CC1 (stereo not shown) [ID 774] | 0 to 25%
CCOC(=O)N1CCC(n2ccc3c(NC(=O)CCc4ccccc4OC)cccc3c2=O)CC1 [ID 775] | 0 to 25%
CCOC(=O)N1CCC(n2ccc3c(NC(=O)CCc4ccc(OC)cc4)cccc3c2=O)CC1 [ID 776] | 0 to 25%
CCOC(=O)N1CCC(n2ccc3c(NC(=O)Cc4ccccc4F)cccc3c2=O)CC1 [ID 777] | 0 to 25%
CCOC(=O)N1CCC(n2ccc3c(NC(=O)Cc4ccccc4Cl)cccc3c2=O)CC1 [ID 778] | 0 to 25%
CCOC(=O)N1CCC(n2ccc3c(NC(=O)Cc4ccccc4OC)cccc3c2=O)CC1 [ID 779] | 0 to 25%
CCOC(=O)N1CCC(n2ccc3c(NC(=O)Cc4cc(OC)ccc4OC)cccc3c2=O)CC1 [ID 780] | 0 to 25%
CCOC(=O)N1CCC(n2ccc3c(NC(=O)Cc4ccccc4C)cccc3c2=O)CC1 [ID 781] | 0 to 25%
CCOC(=O)N1CCC(n2ccc3c(NC(=O)Cc4cccc(OC)c4)cccc3c2=O)CC1 [ID 782] | 0 to 25%
CCOC(=O)N1CCC(n2ccc3c(NC(=O)Cc4ccc(OC)c(OC)c4)cccc3c2=O)CC1 [ID 783] | 0 to 25%
CCOC(=O)N1CCC(n2ccc3c(NC(=O)Cc4cccc(C)c4)cccc3c2=O)CC1 [ID 784] | 0 to 25%

SMILES | inhibition at 0.1 µM
CCOC(=O)N1CCC(n2ccc3c(NC(=O)Cc4ccc(OC)cc4)cccc3c2=O)CC1 [ID 785] | 0 to 25%
CCOC(=O)N1CCC(n2ccc3c(NC(=O)Cc4ccc(OCC)cc4)cccc3c2=O)CC1 [ID 786] | 0 to 25%
CCOC(=O)N1CCC(n2ccc3c(NC(=O)Cc4ccc(C)cc4)cccc3c2=O)CC1 [ID 787] | 0 to 25%
CCOC(=O)N1CCC(n2ccc3c(NC(=O)CCCc4ccccc4)cccc3c2=O)CC1 [ID 788] | 0 to 25%
CCOC(=O)N1CCC(n2ccc3c(NC(=O)c4cc5ccccc5o4)cccc3c2=O)CC1 [ID 789] | 0 to 25%
CCOC(=O)N1CCC(n2ccc3c(NC(=O)Cc4ccc5c(c4)OCO5)cccc3c2=O)CC1 [ID 790] | 0 to 25%
CCOC(=O)N1CCC(n2ccc3c(NC(=O)Cc4cc(OC)cc(OC)c4)cccc3c2=O)CC1 [ID 791] | 0 to 25%
CCOC(=O)N1CCC(n2ccc3c(NC(=O)c4cc(C)c(OC)c(C)c4)cccc3c2=O)CC1 [ID 792] | 0 to 25%
CCOC(=O)N1CCC(n2ccc3c(NC(=O)c4ccc(C)c(Cl)c4)cccc3c2=O)CC1 [ID 793] | 0 to 25%
CCOC(=O)N1CCC(n2ccc3c(NC(=O)c4ccc(Cl)cc4C)cccc3c2=O)CC1 [ID 794] | 0 to 25%
CCOC(=O)N1CCC(n2ccc3c(NC(=O)CC4C[C@@H]5CC[C@H]4C5)cccc3c2=O)CC1 (stereo partly shown) [ID 795] | 0 to 25%
CCOC(=O)N1CCC(n2ccc3c(NC(=O)C45CC6C[C@H](C4)C[C@@](O)(C6)C5)cccc3c2=O)CC1 [ID 796] | 0 to 25%
CCOC(=O)N1CCC(n2ccc3c(NC(=O)[C@@]45C[C@@H]6C[C@@H](C[C@@H]4C6)C5)cccc3c2=O)CC1 [ID 797] | 0 to 25%
CCOC(=O)N1CCC(n2ccc3c(NC(=O)c4cccc5c4OCCO5)cccc3c2=O)CC1 [ID 798] | 0 to 25%
CCOC(=O)N1CCC(n2ccc3c(NC(=O)c4ccc5c(c4)OCCCO5)cccc3c2=O)CC1 [ID 799] | 0 to 25%
CCOC(=O)N1CCC(n2ccc3c(NC(=O)c4cccc(Cl)c4C)cccc3c2=O)CC1 [ID 801] | 0 to 25%
CCOC(=O)N1CCC(n2ccc3c(NC(=O)Cc4cc(C)cc(C)c4)cccc3c2=O)CC1 [ID 802] | 0 to 25%
CCOC(=O)N1CCC(n2ccc3c(NC(=O)C4C[C@@H]5CC[C@H]4C5)cccc3c2=O)CC1 (stereo partly shown) [ID 803] | 0 to 25%
CCOC(=O)N1CCC(n2ccc3c(NC(=O)Cc4ccc(OC)cc4OC)cccc3c2=O)CC1 [ID 804] | 0 to 25%
CCOC(=O)N1CCC(n2ccc3c(NC(=O)Cc4ccccc4OCC)cccc3c2=O)CC1 [ID 805] | 0 to 25%
CCOC(=O)N1CCC(n2ccc3c(NC(=O)Cc4ccc(OC)c(C)c4)cccc3c2=O)CC1 [ID 806] | 0 to 25%
CCOC(=O)N1CCC(n2ccc3c(NC(=O)CCc4cccc(C)c4)cccc3c2=O)CC1 [ID 807] | 0 to 25%
CCOC(=O)N1CCC(n2ccc3c(NC(=O)c4cccc(C)c4Cl)cccc3c2=O)CC1 [ID 808] | 0 to 25%
CCOC(=O)N1CCC(n2ccc3c(NC(=O)c4ccc(OC)c(C)c4)cccc3c2=O)CC1 [ID 809] | 0 to 25%
CCOC(=O)N1CCC(n2ccc3c(NC(=O)CCc4ccc(C)cc4C)cccc3c2=O)CC1 [ID 810] | 0 to 25%
CCOC(=O)N1CCC(n2ccc3c(NC(=O)CCc4cccc(Cl)c4)cccc3c2=O)CC1 [ID 811] | 0 to 25%
CCOC(=O)N1CCC(n2ccc3c(NC(=O)c4ccc(CC(C)C)cc4)cccc3c2=O)CC1 [ID 812] | 0 to 25%

same assay, conditions: 0.3 μM concentration, read-out: IL-1β % Inhib. @ 0.3 or 0.1 μM

SMILES | inhibition at 0.3 µM
O=C(CC1(O)CCCCCC1)Nc1cccc2c(=O)n(C3CCNCC3)ccc12 [ID 813] | 0 to 25%
O=C(Cc1ccc(Cl)c(Cl)c1)Nc1cccc2c(=O)n(C3CCNC3)ccc12 (stereo not shown) [ID 815] | > 76%
O=C(Cc1ccc(Cl)c(Cl)c1)Nc1cccc2c(=O)n(C3CCNCC3)ccc12 [ID 816] | 26 to 50%
CC(C(=O)Nc1cccc2c(=O)n(C3CCNCC3)ccc12)c1ccc(Cl)cc1 (stereo not shown) [ID 817] | 0 to 25%
O=C(Cc1ccc(Cl)c(C(F)(F)F)c1)Nc1cccc2c(=O)n(C3CCNCC3)ccc12 [ID 818] | > 76%
O=C(CC1CCCCCC1)Nc1cccc2c(=O)n(C3CCNCC3)ccc12 [ID 819] | 51 to 75%
O=C(CC1CCCCCC1)Nc1cccc2c(=O)n(C3CCNC3)ccc12 (stereo not shown) [ID 820] | > 76%
CC(C(=O)Nc1cccc2c(=O)n(C3CCNC3)ccc12)c1ccc(Cl)cc1 (stereo not shown) [ID 821] | 51 to 75%
O=C(Cc1ccc(Cl)c(Cl)c1)Nc1cccc2c(=O)n([C@H]3CCNC3)ccc12 [ID 822] | > 76%

same assay, conditions: four parameter logistic fit, read-out: IL-1β IC50

SMILES | IC50
O=C(CC1(O)CCCCCC1)Nc1cccc2c(=O)n(C3CCNCC3)ccc12 [ID 813] | 760 nM
O=C(Cc1ccc(Cl)c(Cl)c1)Nc1cccc2c(=O)n(C3CCNC3)ccc12 (stereo not shown) [ID 815] | 125 nM
O=C(Cc1ccc(Cl)c(Cl)c1)Nc1cccc2c(=O)n(C3CCNCC3)ccc12 [ID 816] | 305 nM
CC(C(=O)Nc1cccc2c(=O)n(C3CCNCC3)ccc12)c1ccc(Cl)cc1 (stereo not shown) [ID 817] | 902 nM
O=C(Cc1ccc(Cl)c(C(F)(F)F)c1)Nc1cccc2c(=O)n(C3CCNCC3)ccc12 [ID 818] | 99 nM
O=C(CC1CCCCCC1)Nc1cccc2c(=O)n(C3CCNCC3)ccc12 [ID 819] | 206 nM
O=C(CC1CCCCCC1)Nc1cccc2c(=O)n(C3CCNC3)ccc12 (stereo not shown) [ID 820] | 25.7 nM
CC(C(=O)Nc1cccc2c(=O)n(C3CCNC3)ccc12)c1ccc(Cl)cc1 (stereo not shown) [ID 821] | 252 nM
O=C(Cc1ccc(Cl)c(Cl)c1)Nc1cccc2c(=O)n([C@H]3CCNC3)ccc12 [ID 822] | 31.3 nM
